Measured values reported in patent US6887873B2, “Triazine derivatives and their application as antitelomerase agents” (Aventis Pharma S.A., priority 2001, dated 2005).
Several values for one entry are separate records, joined by “and”; a condition that tells them apart may be missing. Equal entries are not always repeated.

Experiments:
[1] = tested on: G-quadruplex of oligonucleotide GGGTTAGGGTTAGGGTTAGGG (3.5 repeats of the human telomereic motif); assay: G-quadruplex stabilizing activity, fluorescence Tm (FAM+DABCYL oligonucleotide); format: binding
Source text: The G-quadruplex stabilizing activity may be determined by a method using the formation of a complex with fluorescein of which the experimental protocol is described below.
All the nucleotides, modified or otherwise, were synthesized by Eurogentec SA, Seraing, Belgium. The oligonucleotide FAM+DABCYL carries the catalogue reference OL-0371-0802. It has the sequence: […] corresponding to 3.5 repeats of the human telomereic motif (strand rich in G). The fluorescein is attached to the 5′ end, the DABCYL to the 3′ end, by the chemical arms described by Eurogentec. The concentration of the samples is checked by spectrophotometry, recording the absorbance spectrum between 220 and 700 nm and using the molar extinction coefficient provided by the supplier.
All the experiments were carried out in a 10 mM sodium cacodylate buffer pH 7.6 containing 0.1 M lithium chloride (or sodium chloride). The absence of fluorescent contamination in the buffer was checked beforehand. The fluorescent oligonucleotide is added at the final concentration of 0.2 μM.
All the measurements of fluorescence were carried out on a Spex Fluorolog DM1B apparatus, using an excitation line width of 1.8 nm and an emission line width of 4.5 nm. The samples are placed in a microquartz cuvette of 0.2×1 cm. The temperature of the sample is controlled by an external water bath. The oligonucleotide alone was analysed at 20, 30, 40, 50, 60, 70 and 80° C. The emission spectra are recorded using an excitation wavelength of 470 nm. The excitation spectra are recorded using either 515 nm or 588 nm as emission wavelength. The spectra are corrected for the response of the instrument by reference curves. A high extinction (80-90%) of the fluorescence of fluorescein at room temperature is observed, in agreement with an intramolecular folding of the oligonucleotide at 20° C. in the form of a G-quadruplex, which induces juxtaposition of its 5′ and 3′ ends which are respectively linked to fluorescein and to DABCYL. This juxtaposition causes an already-described phenomenon of extinction of fluorescence which is used for “molecular beacons”.
An oligonucleotide stock solution at the strand concentration of 0.2 μM in 0.1 M LiCl, 10 mM cacodylate buffer, pH 7.6, is prepared beforehand, heated briefly at 90° C. and slowly cooled to 20° C., and then distributed in aliquots of 600 μl in the fluorescence cuvettes. 3 μl of water (for the control) or 3 μl of test product (stock at 200 μM, final concentration 1 μM) are then added and mixed. The samples are then allowed to incubate for at least 1 hour at 20° C. before each measurement. The use of longer incubation times (up to 24 hours) has no influence on the result obtained.
Each experiment allows the measurement of only one sample. The latter is first incubated at an initial temperature of 20° C., heated to 80° C. over 38 minutes, left for 5 minutes at 80° C. and then cooled to 20° C. over 62 minutes. During this time, the fluorescence is measured simultaneously at two emission wavelengths (515 nm and 588 nm) using 470 nm as excitation wavelength. A measurement is carried out every 30 seconds. The temperature of the water bath is recorded in parallel, and the fluorescence profile as a function of the temperature is reconstituted from these values. The fluorescence profiles are then normalized between 20° C. and 80° C., and the temperature for which the intensity of emission at 515 nm is the mean of those at high and low temperature is called Tm. Under these conditions, the Tm of the reference sample without addition of product is 44° C. in a lithium chloride buffer. This temperature is increased to more than 55° C. in a sodium chloride buffer. The addition of a G-quadruplex-stabilizing compound induces an increase in the Tm. This increase is judged to be significant if it is greater than 3°.

[2] = tested on: human telomerease (HL60 cell extract); assay: Antitelomerease activity: extension of oligonucleotide TS followed by PCR amplification, with HL60 extract; format: biochemical; conditions: read-out: TRAP IC50
Experimental: The antitelomerease biological activity is determined by the following experimental protocol:
The leukaemia line HL60 is obtained from ATCC (American Type Culture Collection, Rockville, USA). The cells are cultured in suspension in RPMI 1640 medium containing L-glutamine at 2 mM, penicillin 200 U/ml, streptomycin 200 μg/ml, gentamycin 50 μg/ml and supplemented with 10% heat-inactivated foetal calf serum.
An aliquot of 10^5 cells is centrifuged at 3000×G and the supernatant discarded. The cell pellet is resuspended by several successive pipettings in 200 μl of lysis buffer containing 0.5% CHAPS, 10 mM Tris-HCl, pH 7.5, 1 mM MgCl2, 1 mM EGTA, 5 mM β-mercaptoethanol, 0.1 mM PMSF and 10% glycerol and is stored in ice for 30 minutes. The lysate is centrifuged at 160,000×G for 20 minutes at 4° C. and 160 μl of supernatant are recovered. The proteins in the extract are assayed by the Bradford method. The extract is stored at −80° C.
The inhibition of the telomerease activity is determined by a protocol for extension of the oligonucleotide TS (^5′AATCGTTCGAGCAGAGTT^3′), in the presence of a cellular extract enriched in telomerease activity and compounds which are added at various concentrations (10, 1, 0.1 and 0.01 μM). The extension reaction is followed by a PCR amplification of the extension products with the aid of the oligonucleotides TS and CXext (^5′[…]^3′).
The reaction medium is prepared based on the following composition:
The oligonucleotides are obtained from Eurogentec (Belgium) and are stored at −20° C. at a stock concentration of 1 mg/ml in distilled water.
The reaction samples are assembled in 0.2 ml PCR tubes and one drop of paraffin oil is deposited on each of the reactions of the experiment before closing the tubes.
The reaction samples are then incubated in a Cetus 4800-type PCR apparatus under the following temperature conditions: • 15 minutes at 30° C., • 1 minute at 90° C., • followed by 30 cycles of, • 30 seconds at 94° C., • 30 seconds at 50° C., • and 1 minute 30 seconds at 72° C., • followed by a final cycle of 2 minutes at 72° C.
For each of the samples, an aliquot of 10 μl is pipetted under the oil layer and mixed with 5 μl of a loading buffer containing:
The samples are then analysed by electrophoresis on 12% acrylamide gel in a 1×TBE buffer for 1 hour at a voltage of 200 volts, with the aid of a Novex electrophoresis system.
The acrylamide gels are then dried on a sheet of Whatmann 3 mm paper at 80° C. for 1 hour.
The analysis and the quantification of the reaction products are carried out with the aid of an InstantImager apparatus (Pacard).
For each compound concentration tested, the results are expressed as percentage inhibition of the reaction and calculated from the untreated enzymatic control and from the enzyme-free sample (blank) according to the following formula: (compound value−blank value/enzymatic control value−blank value)×100.
The concentration of compound inducing a 50% inhibition of the telomerease reaction (IC50) is determined with the aid of a semilogarithmic graphical representation of the inhibition values obtained as a function of each of the compound concentrations tested.
A compound is considered to be active as an antitelomerease agent when the quantity inhibiting 50% of the telomerease reaction is in particular less than 5 μM.

Row | SMILES | G4 delta Tm [1] | IC50 [2]
1 | Cc1cc(N)c2cc(Nc3nc(Nc4ccncc4)nc(Nc4ccccc4Cl)n3)ccc2n1 [Example 4] | 5.5 °C | 3000 nM
2 | Cc1cc(N)c2cc(Nc3nc(NCCN(C)C)nc(Nc4ccccc4Cl)n3)ccc2n1 [Example 5] | 2.0 °C | 2700 nM
3 | Cc1cc(N)c2cc(Nc3nc(NCCCN(C)C)nc(Nc4ccccc4Cl)n3)ccc2n1 [Example 6] | – | 3500 nM
4 | Cc1cc(N)c2cc(Nc3nc(Nc4ccccc4Cl)nc(NC4CCN(C)CC4)n3)ccc2n1 [Example 7] | 3.0 °C | 2400 nM
5 | Cc1cc(N)c2cc(Nc3nc(Nc4ccccc4Cl)nc(N4CCN(C)CC4)n3)ccc2n1 [Example 8] | 1.5 °C | 3200 nM
6 | Cc1cc(N)c2cc(Nc3nc(NCCCN(C)C)nc(Nc4ccc5nc(C)cc(N(C)C)c5c4)n3)ccc2n1 [Example 9] | 10.0 °C | 100 nM
7 | Cc1cc(N)c2cc(Nc3nc(Nc4ccncc4)nc(Nc4ccc5nc(C)cc(N)c5c4)n3)ccc2n1 [Example 10] | 8.9 °C | 360 nM
8 | Cc1cc(N)c2cc(Nc3nc(Nc4ccc5nc(C)cc(N)c5c4)nc(Nc4ccc5nc(C)cc(N(C)C)c5c4)n3)ccc2n1 [Example 11, 2,4-bis(4-amino-2-methylquinolin-6-yl)amino-6-(4-dimethylamino-2-methylquinolin-6-yl)amino-[1,3,5]triazine] | 11.4 °C | 160 nM
9 | Cc1cc(N)c2cc(Nc3nc(NCCCN(C)C)nc(Nc4ccc5nc(C)cc(N)c5c4)n3)ccc2n1 [Example 12] | 9.4 °C | 300 nM
10 | Cc1cc(N)c2cc(Nc3nc(Nc4ccc5nc(C)cc(N)c5c4)nc(NC4CCN(C)CC4)n3)ccc2n1 [Example 13] | 7.2 °C | 260 nM
11 | Cc1cc(N)c2cc(Nc3nc(Nc4ccc5nc(C)cc(N)c5c4)nc(N4CCN(C)CC4)n3)ccc2n1 [Example 14] | 4.4 °C | 210 nM
12 | Cc1cc(N)c2cc(Nc3nc(NCC4CCCN4)nc(Nc4ccc5nc(C)cc(N)c5c4)n3)ccc2n1 (stereo not shown) [Example 16] | 7.3 °C | 80 nM
13 | Cc1cc(N(C)C)c2cc(Nc3nc(NCC4CCCN4)nc(Nc4ccc5nc(C)cc(N(C)C)c5c4)n3)ccc2n1 (stereo not shown) [Example 22] | 2.7 °C | 340 nM
14 | Cc1cc(N(C)C)c2cc(Nc3nc(Nc4ccc5nc(C)cc(N(C)C)c5c4)nc(N4CCCC4)n3)ccc2n1 [Example 23] | 9.2 °C | 3000 nM
15 | Cc1cc(N)c2cc(Nc3nc(Nc4ccc5nc(C)cc(N)c5c4)nc(Oc4ccccc4)n3)ccc2n1 [Example 29, 2,4-bis(4-amino-2-methylquinolin-6-yl)amino-6-phenoxy-[1,3,5]triazine] | – | 320 nM and 470 nM
16 | Cc1cc(N)c2cc(Nc3nc(Nc4ccc5nc(C)cc(N)c5c4)nc(Nc4cccc5nn[nH]c45)n3)ccc2n1 [Example 61] | – | 360 nM
17 | Cc1cc(N)c2cc(Nc3nc(NCc4cccc5ccccc45)nc(Nc4ccc5nc(C)cc(N)c5c4)n3)ccc2n1 [Example 78] | – | 1500 nM

Row | SMILES | G4 delta Tm [1] | IC50 [2]
18 | Cc1cc(N)c2cc(Nc3nc(Nc4ccc5ccccc5c4)nc(Nc4ccc5nc(C)cc(N)c5c4)n3)ccc2n1 [Example 79] | – | 3600 nM
19 | Cc1cc(N)c2cc(Nc3nc(NCCN4CCOCC4)nc(Nc4ccc5nc(C)cc(N)c5c4)n3)ccc2n1 [Example 80] | – | 1200 nM
20 | Cc1cc(N)c2cc(Nc3nc(NCc4cccc5cnccc45)nc(Nc4ccc5nc(C)cc(N)c5c4)n3)ccc2n1 [Example 81] | – | 1400 nM
21 | COc1cccc(Nc2nc(Nc3ccc4nc(C)cc(N)c4c3)nc(Nc3ccc4nc(C)cc(N)c4c3)n2)c1 [Example 82] | – | 1600 nM
22 | COCCNc1nc(Nc2ccc3nc(C)cc(N)c3c2)nc(Nc2ccc3nc(C)cc(N)c3c2)n1 [Example 84] | – | 2200 nM
23 | Cc1cc(N)c2cc(Nc3nc(Nc4ccc5nc(C)cc(N)c5c4)nc(Nc4nccc5ccccc45)n3)ccc2n1 [Example 87] | – | 1500 nM
24 | Cc1cc(N)c2cc(Nc3nc(Nc4ccc5nc(C)cc(N)c5c4)nc(Nc4ncccn4)n3)ccc2n1 [Example 94] | – | 940 nM
25 | Cc1cc(N)c2cc(Nc3nc(Nc4ccc5nc(C)cc(N)c5c4)nc(Nc4cccc5ncccc45)n3)ccc2n1 [Example 95] | – | 930 nM
26 | Cc1cc(N)c2cc(Nc3nc(Nc4ccc5ncccc5c4)nc(Nc4ccc5nc(C)cc(N)c5c4)n3)ccc2n1 [Example 96] | – | 480 nM
27 | Cc1cc(N)c2cc(Nc3nc(Nc4ccc5nc(C)cc(N)c5c4)nc(Nc4cccc5cccnc45)n3)ccc2n1 [Example 97] | – | 690 nM
28 | Cc1cc(N)c2cc(Nc3nc(Nc4ccc5nc(C)cc(N)c5c4)nc(Nc4ccc5c6c(cccc46)CC5)n3)ccc2n1 [Example 99] | – | 600 nM
29 | Cc1cc(N)c2cc(Nc3nc(Nc4ccc5nc(C)cc(N)c5c4)nc(Nc4cc5ccccc5cn4)n3)ccc2n1 [Example 100] | – | 450 nM
30 | Cc1cc2c(Nc3nc(Nc4ccc5nc(C)cc(N)c5c4)nc(Nc4ccc5nc(C)cc(N)c5c4)n3)cccc2cn1 [Example 101] | – | 810 nM
31 | CCOc1cc(Nc2nc(Nc3ccc4nc(C)cc(N)c4c3)nc(Nc3ccc4nc(C)cc(N)c4c3)n2)c2ncccc2c1 [Example 102] | – | 570 nM
32 | Cc1cc(N)c2cc(Nc3nc(Nc4ccc5nc(C)cc(N)c5c4)nc(Sc4ccc5ccccc5c4)n3)ccc2n1 [Example 116] | – | 1800 nM
33 | Cc1cc(N)c2cc(Nc3nc(Nc4ccc5nc(C)cc(N)c5c4)nc(Sc4ncccn4)n3)ccc2n1 [Example 121] | – | 400 nM and 360 nM
